# Values quoted from earlier work in patent US5831004A, “Inhibitors of metalloproteases, pharmaceutical compositions comprising same and methods of their use” (Affymax Technologies N.V., priority 1995, dated 1998).
# Target: T1, human rheumatoid synovial collagenase (Homo sapiens, UniProt P03956)
# T1 sequence (P03956 100-469): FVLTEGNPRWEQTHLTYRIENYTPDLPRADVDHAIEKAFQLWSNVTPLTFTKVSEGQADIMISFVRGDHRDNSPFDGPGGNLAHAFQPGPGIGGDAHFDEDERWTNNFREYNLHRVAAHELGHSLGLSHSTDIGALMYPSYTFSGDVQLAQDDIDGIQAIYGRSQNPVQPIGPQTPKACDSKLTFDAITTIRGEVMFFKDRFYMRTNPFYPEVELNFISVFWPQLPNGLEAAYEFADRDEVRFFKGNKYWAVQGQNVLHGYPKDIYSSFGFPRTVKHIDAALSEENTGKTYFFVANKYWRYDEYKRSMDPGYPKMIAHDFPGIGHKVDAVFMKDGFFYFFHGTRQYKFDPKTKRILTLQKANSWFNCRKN
# Details: cited from earlier work
smiles,measurement,value
"CNC(=O)[C@H](Cc1ccc(OC)cc1)NC(=O)[C@H](CC(C)C)NC(CCNC(=O)OCc1ccccc1)C(=O)O (stereo partly drawn) [N-[3-(benzyloxy-carbonyl)amino-1-carboxy-n-propyl]-L-leucyl-O-methyl-L-tyrosine, N-methylamide]",IC50,< 8 µM
